One data set concerns subjects with CD. The settings on record: Phase 2; cited from earlier work.
In data set [1] the test system is peripheral blood lymphocytes. Kind of data set: Phase 1, single ascending dose clinical trial in healthy subjects. The data set is classed as in vivo, human.
Data set [2] has as its system peripheral lymphocyte counts. In words: Phase 1, multiple ascending dose clinical trial in healthy subjects. Type of data set: in vivo, human. From the text: […] […] After treatment with Compound 1, lymphocyte reductions of 46% and 65% for Day 8 and Day 15, respectively, were observed.
For another data set, the system named is lymphocyte. The data set is classed as in vivo, human. On the procedure: In another Phase 1 study, 30 adult subjects received 2 mg of Compound 1 qd (Days 1 to 7), then 3 mg of Compound 1 qd (Days 8 to 12), and finally 4 mg of Compound 1 qd (Days 13 to 14). […] After treatment with Compound 1, lymphocyte reductions of 46% and 65% for Day 8 and Day 15, respectively, were observed.

In data set [3] the test system is peripheral lymphocyte counts. In words: Phase 1 studies taken together (safety, tolerability, lymphocyte counts). The data set is classed as in vivo, human. On the procedure: Compound 1, or a pharmaceutically acceptable salt, solvate, or hydrate thereof, is an orally administered, selective, synthetic sphingosine 1-phosphate (S1P) receptor 1, 4, 5 modulator. […] Its safety and tolerability have been evaluated in Phase 1 studies with healthy adult subjects at single doses up to 5 mg and repeated doses up to 4 mg once daily (“QD” or “qd”). […] In another Phase 1 study, 30 adult subjects received 2 mg of Compound 1 qd (Days 1 to 7), then 3 mg of Compound 1 qd (Days 8 to 12), and finally 4 mg of Compound 1 qd (Days 13 to 14). […] After treatment with Compound 1, lymphocyte reductions of 46% and 65% for Day 8 and Day 15, respectively, were observed.

Data set [4] concerns UC patients. In words: Phase 2 dose-ranging study in UC patients. The data set is classed as in vivo, human. From the text:
Further, while UC and CD have overlapping features, there are differences in pathophysiology, disease location, and extent of disease that may dictate different doses for the treatment of UC and CD. Described herein is the elucidation of safe and efficacious dosing of Compound 1 for the treatment of CD.
(§1) Compound 1, or a pharmaceutically acceptable salt, solvate, or hydrate thereof, is an orally administered, selective, synthetic sphingosine 1-phosphate (S1P) receptor 1, 4, 5 modulator. […] Its safety and tolerability have been evaluated in Phase 1 studies with healthy adult subjects at single doses up to 5 mg and repeated doses up to 4 mg once daily (“QD” or “qd”).

For data set [5], the system named is UC patients. Kind of data set: Open-label extension study after the Phase 2 UC study. Type of data set: in vivo, human. To be noted: up to 46 weeks. On the procedure: as §1

Each structure is given as a SMILES string. Like-named read-outs stand apart in the source and are kept apart here.

In the case of `CCCCCCCOc1ccc(CCC(N)(CO)CO)cc1C(F)(F)F` [amiselimod], the efficacy over placebo entry with subjects with CD is on record as “did not result in improved efficacy over placebo”.
Take `O=C(O)C[C@H]1CCc2c1[nH]c1ccc(OCc3ccc(C4CCCC4)c(C(F)(F)F)c3)cc21` [Compound 1, (R)-2-(7-(4-cyclopentyl-3-(trifluoromethyl)benzyloxy) -1,2,3,4-tetrahydrocyclopenta[b]indol-3-yl)acetic acid]: in data set [1] (single 3 mg and 5 mg doses), the “decline in the absolute number of peripheral blood lymphocytes” value is reported as “clear dose-responsive decline”. Besides, in data set [1] (single doses up to 1 mg), the “declines in peripheral blood lymphocytes” value is “only modest declines”. Further, the safety and tolerability result in data set [2] (up to 21 days of dosing with 2 mg or 3 mg) was “safe and well-tolerated”; in data set [3] (adult subjects treated at various doses, Phase 1 single doses up to 5 mg, repeated doses up to 4 mg once daily) it was “safe and well-tolerated”. In addition, the peripheral lymphocyte counts entry in data set [2] (up to 21 days of dosing, 2 mg and 3 mg) was “reduced peripheral lymphocyte counts”. Also, the lymphocyte reductions was determined as 46% with lymphocyte (Day 8 (after 2 mg qd Days 1 to 7)) and 65% in the data set on lymphocyte (Day 15 (after 2 mg Days 1 to 7, 3 mg Days 8 to 12, 4 mg Days 13 to 14)). For the same molecule, the “reductions in peripheral lymphocyte counts” value in data set [3] (Phase 1 studies together, 2 mg and 3 mg) was “significant reductions”. Moreover, the tolerability and safety result in data set [3] (Phase 1 studies together, doses up to 4 mg) was “well-tolerated with no significant safety findings”. The “endoscopic and symptomatic improvements versus placebo” value with UC patients [4] (UC patients, 2 mg QD for 12 weeks) was “clinically meaningful and statistically significant endoscopic and symptomatic improvements”. Also, the efficacy over placebo entry with UC patients [4] (subjects with UC, 2 mg) is on record as “improved efficacy”. In the data set on UC patients [5], the “beneficial effects in open-label extension” value is given as “Sustained beneficial effects”.

Values taken from patent US20220347158A1, “Methods of Treating Conditions Related to the S1P1 Receptor” (Arena Pharmaceuticals, Inc., priority 2019, published 2022).
